One data set deals with HIV-1 RT (Human immunodeficiency virus type 1 group M subtype B, UniProt P03366). The data set can be described thus: HIV Reverse Transcriptase Assay: Inhibitor IC50 Determination. The data set is classed as biochemical. Particulars: purified recombinant enzyme, poly(rA)/oligo(dT)16 template-primer, 37° C. 30 min. The protocol:
HIV Reverse Transcriptase Assay: Inhibitor IC50 Determination
HIV-1 RT assay was carried out in 96-well Millipore MultiScreen MADVNOB50 plates using purified recombinant enzyme and a poly(rA)/oligo(dT)16 template-primer in a total volume of 50 μL. The assay constituents were 50 mM Tris/HCl, 50 mM NaCl, 1 mM EDTA, 6 mM MgCl2, 5 μM dTTP, 0.15 μCi [^3H] dTTP, 5 μg/ml poly (rA) pre annealed to 2.5 μg/ml oligo (dT)16 and a range of inhibitor concentrations in a final concentration of 10% DMSO. Reactions were initiated by adding 4 nM HIV-1 RT and after incubation at 37° C. for 30 min, they were stopped by the addition of 50 μl ice cold 20% TCA and allowed to precipitate at 4° C. for 30 min. The precipitates were collected by applying vacuum to the plate and sequentially washing with 3×200 μl of 10% TCA and 2×200 μl 70% ethanol. Finally, the plates were dried and radioactivity counted in a Packard TopCounter after the addition of 25 μl scintillation fluid per well. IC50's were calculated by plotting % inhibition versus log10 inhibitor concentrations.

One may read the IC50 as the point on the concentration scale where inhibition reaches its midpoint. A word on the melting point: it is the temperature, or range, at which the solid turns liquid.

Regarding `Cc1cc(OCCCS(N)(=O)=O)ccc1NC(=O)Cc1ccc(Oc2cc(Cl)ccc2Br)c(Cl)c1` [Compound I-5, 2-[4-(2-Bromo-5-chloro-phenoxy)-3-chloro-phenyl]-N-[2-methyl-4-(3-sulfamoyl-propoxy)-phenyl]-acetamide], at HIV-1 RT, the half-inhibitory concentration (IC50) was 148 nM. On to `O=C(Cc1ccc(Oc2cc(Cl)ccc2Br)c(Cl)c1)Nc1ccccc1Cl` [Compound I-6, 2-[4-(2-Bromo-5-chloro-phenoxy)-3-chloro-phenyl]-N-(2-chloro-phenyl)-acetamide], for which the concentration for half-maximal inhibition (IC50) at HIV-1 RT worked out at 170 nM.

For the molecule `Cc1ccccc1NC(=O)Cc1ccc(Oc2cc(Cl)ccc2Br)c(Cl)c1` [Compound I-7, 2-[4-(2-Bromo-5-chloro-phenoxy)-3-chloro-phenyl]-N-o-tolyl-acetamide], the IC50 at HIV-1 RT was 832 nM. For the molecule `O=C(Cc1ccc(Oc2cc(Cl)ccc2Br)c(Cl)c1)Nc1ccccc1F` [Compound I-8, 2-[4-(2-Bromo-5-chloro-phenoxy)-3-chloro-phenyl]-N-(2-fluoro-phenyl)-acetamide], the concentration for half-maximal inhibition (IC50) on HIV-1 RT came to 5810 nM. Same read-out and setting: as for `Cc1c(CC(=O)Nc2ccc(S(N)(=O)=O)cc2Cl)ccc(Oc2cc(Cl)cc(C#N)c2)c1C` [Compound I-18, 2-[4-(3-Chloro-5-cyano-phenoxy)-2,3-dimethyl-phenyl]-N-(2-chloro-4-sulfamoyl-phenyl)-acetamide], the figure is 111 nM; as for `N#Cc1cc(C#N)cc(Oc2ccc(CC(=O)Nc3ccccc3Br)cc2Cl)c1` [Compound I-20, N-(2-Bromo-phenyl)-2-[3-chloro-4-(3,5-dicyano-phenoxy)-phenyl]-acetamide], 2380 nM. On the same count and under the same terms, the figure for `N#Cc1cc(C#N)cc(Oc2ccc(CC(=O)Nc3ccc(S(N)(=O)=O)cc3Br)cc2Cl)c1` [Compound I-21, N-(2-Bromo-4-sulfamoyl-phenyl)-2-[3-chloro-4-(3,5-dicyano-phenoxy)-phenyl]-acetamide] is 159 nM; for `Cc1cc(S(N)(=O)=O)ccc1NC(=O)Cc1ccc(Oc2ccc(C#N)cc2C)c(C)c1C` [Compound I-23, 2-[4-(4-Cyano-2-methyl-phenoxy)-2,3-dimethyl-phenyl]-N-(2-methyl-4-sulfamoyl-phenyl)-acetamide] it is 252 nM. Same read-out and setting: as for `Cc1cc(C#N)ccc1Oc1ccc(CC(=O)Nc2ccc(S(N)(=O)=O)cc2Cl)c(C)c1C` [Compound I-25, N-(2-Chloro-4-sulfamoyl-phenyl)-2-[4-(4-cyano-2-methyl-phenoxy)-2,3-dimethyl-phenyl]-acetamide], the figure is 157 nM. `Cc1c(CC(=O)Nc2ccc(S(N)(=O)=O)cc2Br)ccc(Oc2cc(Cl)cc(C#N)c2)c1C` [Compound I-33, N-(2-Bromo-4-sulfamoyl-phenyl)-2-[4-(3-chloro-5-cyano-phenoxy)-2,3-dimethyl-phenyl]-acetamide]: the IC50 on HIV-1 RT worked out at 84.3 nM. The same measure, in the same setting: the figure for `Cc1cc(S(N)(=O)=O)ccc1NC(=O)Cc1ccc(Oc2cc(C#N)ccc2Cl)c(Cl)c1` [Compound I-35, 2-[3-Chloro-4-(2-chloro-5-cyano-phenoxy)-phenyl]-N-(2-methyl-4-sulfamoyl-phenyl)-acetamide] is 395 nM; for `N#Cc1ccc(Cl)c(Oc2ccc(CC(=O)Nc3ccc(S(N)(=O)=O)cc3Cl)cc2Cl)c1` [Compound I-36, 2-[3-Chloro-4-(2-chloro-5-cyano-phenoxy)-phenyl]-N-(2-chloro-4-sulfamoyl-phenyl)-acetamide] it is 104 nM; for `Cc1cc(S(N)(=O)=O)ccc1NC(=O)Cc1ccc(Oc2cc(Cl)cc(C#N)c2)c(Cl)c1` [Compound I-38, 2-[3-Chloro-4-(3-chloro-5-cyano-phenoxy)-phenyl]-N-(2-methyl-4-sulfamoyl-phenyl)-acetamide] it is 806 nM. Same read-out and setting: the figure for `N#Cc1cc(Cl)cc(Oc2ccc(CC(=O)Nc3ccc(S(N)(=O)=O)cc3Cl)cc2Cl)c1` [Compound I-39, 2-[3-Chloro-4-(3-chloro-5-cyano-phenoxy)-phenyl]-N-(2-chloro-4-sulfamoyl-phenyl)-acetamide] is 92.6 nM; for `Cc1cc(S(N)(=O)=O)ccc1NC(=O)Cc1ccc(Oc2c(Cl)cccc2Cl)c(Cl)c1` [Compound I-41, 2-[3-Chloro-4-(2,6-dichloro-phenoxy)-phenyl]-N-(2-methyl-4-sulfamoyl-phenyl)-acetamide] it is 162 nM; for `Cc1cc(S(N)(=O)=O)ccc1NC(=O)Cc1ccc(Oc2ccc(C#N)cc2C)c(Cl)c1` [Compound I-43, 2-[3-Chloro-4-(4-cyano-2-methyl-phenoxy)-phenyl]-N-(2-methyl-4-sulfamoyl-phenyl)-acetamide] it is 695 nM. On the same count and under the same terms, as for `Cc1cc(C#N)ccc1Oc1ccc(CC(=O)Nc2ccc(S(N)(=O)=O)cc2Cl)cc1Cl` [Compound I-44, 2-[3-Chloro-4-(4-cyano-2-methyl-phenoxy)-phenyl]-N-(2-chloro-4-sulfamoyl-phenyl)-acetamide], the figure is 71.5 nM; as for `NS(=O)(=O)c1ccc(NC(=O)Cc2ccc(Oc3c(Cl)cccc3Cl)c(Cl)c2)c(Cl)c1` [Compound I-45, 2-[3-Chloro-4-(2,6-dichloro-phenoxy)-phenyl]-N-(2-chloro-4-sulfamoyl-phenyl)-acetamide], 63.4 nM; as for `N#Cc1cc(Cl)cc(Oc2ccc(CC(=O)Nc3ccc(S(N)(=O)=O)cc3)cc2Br)c1` [Compound I-46, 2-[3-Bromo-4-(3-chloro-5-cyano-phenoxy)-phenyl]-N-(4-sulfamoyl-phenyl)-acetamide], 6000 nM. Regarding `Cc1cc(S(N)(=O)=O)ccc1NC(=O)Cc1ccc(Oc2cc(Cl)cc(C#N)c2)c(Br)c1` [Compound I-47, 2-[3-Bromo-4-(3-chloro-5-cyano-phenoxy)-phenyl]-N-(2-methyl-4-sulfamoyl-phenyl)-acetamide], the melting point is 214.6 to 215.9 °C. For the same molecule, at HIV-1 RT, the concentration for half-maximal inhibition (IC50) turned out to be 339 nM. `N#Cc1cc(Cl)cc(Oc2ccc(CC(=O)Nc3ccc(S(N)(=O)=O)cc3Cl)cc2Br)c1` [Compound I-48, 2-[3-Bromo-4-(3-chloro-5-cyano-phenoxy)-phenyl]-N-(2-chloro-4-sulfamoyl-phenyl)-acetamide] had a melting point of 205 to 207.3 °C. For the same molecule, the IC50 at HIV-1 RT came out at 19.1 nM. Turning to `COc1cc(CC(=O)Nc2ccc(S(N)(=O)=O)cc2C)ccc1Oc1cc(Cl)cc(C#N)c1` [Compound I-51, 2-[4-(3-Chloro-5-cyano-phenoxy)-3-methoxy-phenyl]-N-(2-methyl-4-sulfamoyl-phenyl)-acetamide], at HIV-1 RT, the IC50 was found to be 1800 nM. Same read-out and setting: the figure for `COc1cc(CC(=O)Nc2ccc(S(N)(=O)=O)cc2Cl)ccc1Oc1cc(Cl)cc(C#N)c1` [Compound I-52, 2-[4-(3-Chloro-5-cyano-phenoxy)-3-methoxy-phenyl]-N-(2-chloro-4-sulfamoyl-phenyl)-acetamide] is 518 nM; for `COc1cc(CC(=O)Nc2ccc(S(N)(=O)=O)cc2Br)ccc1Oc1cc(Cl)cc(C#N)c1` [Compound I-53, N-(2-Bromo-4-sulfamoyl-phenyl)-2-[4-(3-chloro-5-cyano-phenoxy)-3-methoxy-phenyl]-acetamide] it is 394 nM; for `COc1cc(CC(=O)Nc2ccc(S(N)(=O)=O)cc2C)ccc1Oc1ccc(C#N)cc1C` [Compound I-54, 2-[4-(4-Cyano-2-methyl-phenoxy)-3-methoxy-phenyl]-N-(2-methyl-4-sulfamoyl-phenyl)-acetamide] it is 2440 nM. As for `COc1cc(CC(=O)Nc2ccc(S(N)(=O)=O)cc2Cl)ccc1Oc1ccc(C#N)cc1C` [Compound I-55, N-(2-Chloro-4-sulfamoyl-phenyl)-2-[4-(4-cyano-2-methyl-phenoxy)-3-methoxy-phenyl]-acetamide], at HIV-1 RT, the IC50 worked out at 419 nM. `COc1cc(CC(=O)Nc2ccc(S(N)(=O)=O)cc2Br)ccc1Oc1ccc(C#N)cc1C` [Compound I-56, N-(2-Bromo-4-sulfamoyl-phenyl)-2-[4-(4-cyano-2-methyl-phenoxy)-3-methoxy-phenyl]-acetamide]: on HIV-1 RT, the IC50 turned out to be 282 nM. Same read-out and setting: as for `Cc1cc(S(N)(=O)=O)ccc1NC(=O)Cc1ccc(Oc2cc(C#N)cc(C(F)F)c2)c(Br)c1` [Compound I-62, 2-[3-Bromo-4-(3-cyano-5-difluoromethyl-phenoxy)-phenyl]-N-(2-methyl-4-sulfamoyl-phenyl)-acetamide], the figure is 116 nM.

Consider `N#Cc1cc(Oc2ccc(CC(=O)Nc3ccc(S(N)(=O)=O)cc3Cl)cc2Br)cc(C(F)F)c1` [Compound I-63, 2-[3-Bromo-4-(3-cyano-5-difluoromethyl-phenoxy)-phenyl]-N-(2-chloro-4-sulfamoyl-phenyl)-acetamide], for which the IC50 at HIV-1 RT worked out at 53.1 nM. For `N#Cc1cc(Oc2ccc(CC(=O)Nc3ccc(S(N)(=O)=O)cc3Br)cc2Br)cc(C(F)F)c1` [Compound I-64, 2-[3-Bromo-4-(3-cyano-5-difluoromethyl-phenoxy)-phenyl]-N-(2-bromo-4-sulfamoyl-phenyl)-acetamide], on HIV-1 RT, the half-maximal inhibitory concentration (IC50) stood at 61.2 nM.

For `Cc1c(CC(=O)Nc2ccc(S(N)(=O)=O)cc2)ccc(Oc2cc(Cl)cc(C#N)c2)c1C` [Compound I-65, 2-[4-(3-Chloro-5-cyano-phenoxy)-2,3-dimethyl-phenyl]-N-(4-sulfamoyl-phenyl)-acetamide], the concentration for half-maximal inhibition (IC50) on HIV-1 RT was 3120 nM. Still for that read-out and setting: as for `Cc1cc(S(N)(=O)=O)ccc1NC(=O)Cc1ccc(Oc2cc(Cl)cc(C#N)c2)c(C)c1C` [Compound I-66, 2-[4-(3-Chloro-5-cyano-phenoxy)-2,3-dimethyl-phenyl]-N-(2-methyl-4-sulfamoyl-phenyl)-acetamide], the figure is 81.7 nM.
